Consider one compound from PMC3907542 (PLoS ONE, 2014).

Values joined by “and” are separate entries in the source; they are usually repeats but may differ in a detail not shown here. Equal entries are not always repeated. Where two headings read alike, the source gives them in different places.

Data set [1] is described as follows: Pharmacokinetics of baicalin in rats (plasma Cmax). The data set is classed as in vivo. To be noted: Sprague Dawley, rat, iv, read-out: C max of baicalin. The procedure:
All pharmacokinetic data were obtained from 12 animals.
The concentration of baicalin in the blood samples was determined using a slightly modified high-performance liquid chromatography (HPLC) protocol with UV detection at 278 nm. Briefly, 100 µl methanol was added to 25 µl of the blood sample. […] The quantitation limits of baicalin in the rat plasma were 5.86 mg/L.

In data set [2] the test system is CYP3A. As to conditions: Lineweaver-Burk plot, RLMs, nifedipine as substrate.
Procedure: (§1) The preparation of rat liver microsome (RLM) suspensions were performed as previously reported [38]. […] Briefly, the incubation mixtures (total volume 0.2 ml) contained microsomal protein [...
The subject of a further data set is plasma proteins. Set-up: method as in earlier work. As to conditions: plasma protein binding; ref 1 (Tang Y et al); cited from earlier work.
The test system of data set [3] is CYP3A. The data set can be described thus: in vitro. To be noted: rat, rat liver microsomes, pH 7.4, probe nifedipine. In general terms: Liver microsomes are vesicles of endoplasmic reticulum, rich in cytochrome P450 enzymes.
Procedure: as §1
The subject of another data set is rat plasma proteins. The data set can be described thus: Plasma protein binding of nifedipine in vitro with or without baicalin (ultrafiltration). The data set is classed as in vitro ADME. To be noted: double reciprocal plot, baicalin 250-2000 mg/L.

Consider `O=C(O)[C@H]1O[C@@H](Oc2cc3oc(-c4ccccc4)cc(=O)c3c(O)c2O)[C@H](O)[C@@H](O)[C@@H]1O` [baicalin, 5,6-Dihydroxy-flavone-7-O-glucuronide], for which the Cmax amounted to 755 µg/mL in data set [1] (baicalin 0.225 g/kg i.v.) and 1280 µg/mL in data set [1] (baicalin 0.45 g/kg i.v.). Besides, the “type of inhibition of CYP3A” value with CYP3A [2] is “competitive”. Also, the “association constant (KA)” value with plasma proteins is 121000 L/mol. For the same compound, the Ki at 30 min with CYP3A [3] was 146 µM and 64.9 µg/mL. For the same compound, in the data set on rat plasma proteins, the “type of interaction between nifedipine and baicalin for rat plasma proteins” value was “competitive”.

Broadly, the Ki is the dissociation constant of the complex between target and ligand, obtained from inhibition or displacement.
